Assay results taken from ChEMBL document CHEMBL5523755, “Design, Synthesis, and Biological Evaluation of 1,4-Dihydropyridine-Indole as a Potential Antidiabetic Agent via GLUT4 Translocation Stimulation” (J Med Chem, 2024).
The source made the active and inactive calls. No cut-off for these calls is given here.

Assays:
[1] = target: T1, Solute carrier family 2, facilitated glucose transporter member 4 (Rattus norvegicus) (UniProt P19357); assay: Induction of GLUT4 translocation in rat L6-GLUT4myc skeletal muscle cells assessed as translocation to cell surface by measuring fold stimulation at 10 uM measured after 1 hr incubation by antibody-coupled colorimetric assay relative to control; format: cell-based; details: filed as modulator
T1 sequence (whole entry): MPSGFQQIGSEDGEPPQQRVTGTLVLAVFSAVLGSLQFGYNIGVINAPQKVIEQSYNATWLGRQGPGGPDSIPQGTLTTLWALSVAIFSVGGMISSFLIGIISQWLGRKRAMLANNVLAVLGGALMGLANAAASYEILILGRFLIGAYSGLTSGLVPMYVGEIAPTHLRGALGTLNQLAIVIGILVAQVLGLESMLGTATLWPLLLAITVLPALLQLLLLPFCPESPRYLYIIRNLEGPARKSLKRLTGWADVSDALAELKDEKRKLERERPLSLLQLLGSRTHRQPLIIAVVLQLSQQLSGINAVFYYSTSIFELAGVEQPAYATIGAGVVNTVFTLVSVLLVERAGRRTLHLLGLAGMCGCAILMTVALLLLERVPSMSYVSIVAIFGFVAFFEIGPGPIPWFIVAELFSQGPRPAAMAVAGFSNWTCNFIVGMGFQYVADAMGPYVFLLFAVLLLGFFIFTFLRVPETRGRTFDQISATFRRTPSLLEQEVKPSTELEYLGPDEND

[2] = target: T1, Solute carrier family 2, facilitated glucose transporter member 4 (Rattus norvegicus); assay: Induction of GLUT4 translocation in rat L6-GLUT4myc skeletal muscle cells assessed as translocation to cell surface by measuring fold stimulation measured after 16 hrs incubation by antibody-coupled colorimetric assay relative to control; format: cell-based; details: filed as modulator, dose 5-25 µM
[3] = target: T1, Solute carrier family 2, facilitated glucose transporter member 4 (Rattus norvegicus); assay: Induction of insulin-induced GLUT4 translocation in rat L6-GLUT4myc skeletal muscle cells assessed as translocation to cell surface at 10 uM measured after 16 hrs incubation (final 3 hrs under serum starved medium) followed by stimulated with 100 nM insulin for 20 mins by antibody-coupled colorimetric assay; format: cell-based
[4] = target: T1, Solute carrier family 2, facilitated glucose transporter member 4 (Rattus norvegicus); assay: Induction of GLUT4 translocation in rat L6-GLUT4myc skeletal muscle cells assessed as translocation to cell surface by measuring fold stimulation at 10 uM measured after 16 hrs incubation in presence of wortmannin PI3 Kinase inhibitor by antibody-coupled colorimetric assay; format: cell-based
[5] = target: T1, Solute carrier family 2, facilitated glucose transporter member 4 (Rattus norvegicus); assay: Induction of GLUT4 translocation in rat L6-GLUT4myc skeletal muscle cells assessed as translocation to cell surface by measuring fold stimulation at 10 uM measured after 16 hrs incubation in presence of compound c AMPK inhibitor by antibody-coupled colorimetric assay; format: cell-based; details: filed as modulator
[6] = target: RAC-alpha serine/threonine-protein kinase (Rattus norvegicus) (UniProt P47196); assay: Induction of AKT phosphorylation at Ser 473 in rat L6-GLUT4myc skeletal muscle cells at 10 uM measured after 16 hrs incubation by immunoblotting analysis; format: cell-based; details: filed as modulator
RAC-alpha serine/threonine-protein kinase (Rattus norvegicus), sequence (P47196 whole entry): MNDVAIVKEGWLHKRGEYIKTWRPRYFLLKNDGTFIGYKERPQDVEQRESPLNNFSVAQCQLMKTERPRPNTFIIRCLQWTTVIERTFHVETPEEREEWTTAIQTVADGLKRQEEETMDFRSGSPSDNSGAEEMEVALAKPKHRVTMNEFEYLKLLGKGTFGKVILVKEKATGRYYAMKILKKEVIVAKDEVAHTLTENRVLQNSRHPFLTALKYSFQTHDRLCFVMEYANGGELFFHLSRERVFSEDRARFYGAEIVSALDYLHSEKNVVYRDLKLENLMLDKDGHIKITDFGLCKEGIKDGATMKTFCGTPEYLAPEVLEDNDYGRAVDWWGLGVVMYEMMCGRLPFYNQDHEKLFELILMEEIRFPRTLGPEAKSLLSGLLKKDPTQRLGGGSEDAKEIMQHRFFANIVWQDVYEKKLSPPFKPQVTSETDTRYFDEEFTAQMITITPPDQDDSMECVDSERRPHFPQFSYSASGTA

[7] = tested on: L6-GLUT4myc; assay: Induction of GPR40 expression in rat L6-GLUT4myc skeletal muscle cells assessed as increase in mRNA level at 10 uM measured after overnight incubation by RT-PCR analysis; format: functional, cell-based; details: filed as activator
[8] = tested on: Rattus norvegicus; assay: Antihyperglycemic activity in STZ-induced Sprague-Dawley rat diabetic model assessed as decrease in blood glucose at 100 mg/kg, po measured upto 300 mins; format: functional, organism-based
[9] = Stability of the compound in simulated gastric fluid (SGF) assessed as compound remaining measured upto 120 mins relative to control; format: ADME; details: read-out: Stability
[10] = Stability of the compound in simulated intestinal fluid (SIF) assessed as compound remaining measured upto 120 mins relative to control; format: ADME; details: read-out: Stability
[11] = Stability of the compound in simulated physiological fluid (SPF) assessed as compound remaining measured upto 120 mins relative to control; format: ADME; details: read-out: Stability
[12] = Stability of the compound in rat plasma assessed as compound remaining measured upto 120 mins relative to control; format: ADME, cell-free; details: read-out: Stability
[13] = Cmax in Sprague-Dawley rat at 100 mg/kg, po measured after 48 hrs by LC-MS/MS analysis; format: ADME, organism-based; details: in vivo
[14] = Tmax in Sprague-Dawley rat at 100 mg/kg, po measured after 48 hrs by LC-MS/MS analysis; format: ADME, organism-based; details: in vivo
[15] = AUC in Sprague-Dawley rat at 100 mg/kg, po measured after 48 hrs by LC-MS/MS analysis; format: ADME, organism-based; details: in vivo
[16] = Elimination half life in Sprague-Dawley rat at 100 mg/kg, po measured after 48 hrs by LC-MS/MS analysis; format: ADME, organism-based; details: in vivo, read-out: beta t1/2 (converted)
[17] = Clearance in Sprague-Dawley rat at 100 mg/kg, po measured after 48 hrs by LC-MS/MS analysis; format: ADME, organism-based; details: in vivo
[18] = Apparent volume of distribution in Sprague-Dawley rat at 100 mg/kg, po measured after 48 hrs by LC-MS/MS analysis; format: ADME, organism-based; details: in vivo
[19] = MRT in Sprague-Dawley rat at 100 mg/kg, po measured after 48 hrs by LC-MS/MS analysis; format: ADME, organism-based; details: in vivo
[20] = target: T1, Solute carrier family 2, facilitated glucose transporter member 4 (Rattus norvegicus); assay: Induction of GLUT4 translocation in rat L6-GLUT4myc skeletal muscle cells assessed as translocation to cell surface by measuring fold stimulation at 500 uM measured after 1 hr incubation by antibody-coupled colorimetric assay relative to control; format: cell-based; details: filed as modulator
[21] = target: T2, Beta-galactosidase (Homo sapiens) (UniProt P16278); assay: Inhibition of beta-galactosidase (unknown origin) at 100 uM relative to control
T2 sequence (whole entry): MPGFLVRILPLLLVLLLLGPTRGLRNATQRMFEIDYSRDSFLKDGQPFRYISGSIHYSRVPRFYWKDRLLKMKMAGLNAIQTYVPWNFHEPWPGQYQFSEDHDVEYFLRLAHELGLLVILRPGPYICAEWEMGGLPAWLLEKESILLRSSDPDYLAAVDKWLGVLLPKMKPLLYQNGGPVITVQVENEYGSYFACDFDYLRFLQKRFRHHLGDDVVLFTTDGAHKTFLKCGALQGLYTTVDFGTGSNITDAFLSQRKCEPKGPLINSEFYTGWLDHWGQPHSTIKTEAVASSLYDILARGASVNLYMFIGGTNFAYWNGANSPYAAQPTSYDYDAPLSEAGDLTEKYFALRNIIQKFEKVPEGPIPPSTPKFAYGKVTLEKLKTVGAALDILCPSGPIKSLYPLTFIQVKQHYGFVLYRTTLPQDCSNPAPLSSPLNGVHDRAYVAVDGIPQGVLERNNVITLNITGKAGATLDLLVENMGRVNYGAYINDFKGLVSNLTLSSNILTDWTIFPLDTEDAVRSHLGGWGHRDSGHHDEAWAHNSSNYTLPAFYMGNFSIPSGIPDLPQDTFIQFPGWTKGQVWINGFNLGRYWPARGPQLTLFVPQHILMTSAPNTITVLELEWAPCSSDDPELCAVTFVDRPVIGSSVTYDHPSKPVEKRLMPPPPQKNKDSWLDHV

Row | SMILES | fold change (FC) [1] | also measured
1 | CC1=C(C(=O)NCCc2c[nH]c3ccccc23)C(c2ccc(C#N)cc2)C2=C(CC(C)(C)CC2=O)N1 (stereo not drawn) | 0.96 | 
2 | CC1=C(C(=O)NCCc2c[nH]c3ccccc23)C(c2cccc([N+](=O)[O-])c2)C2=C(CCCC2=O)N1 (stereo not drawn) | 1.71 | 
3 | CC1=C(C(=O)Nc2ccccc2)C(c2ccc(Cl)c(Cl)c2)C2=C(CC(C)(C)CC2=O)N1 (stereo not drawn) | 1.1 | 
4 | CCOC(=O)C1=C(C)NC2=C(C(=O)CC(C)(C)C2)C1c1ccc(Cl)c(Cl)c1 (stereo not drawn) | 1.92 | 
5 | CC1=C(C(=O)NCCc2c[nH]c3ccccc23)C(c2ccsc2)C2=C(CCCC2=O)N1 (stereo not drawn) | 1.64 | 
6 | CC1=C(C(=O)NCCc2c(C)[nH]c3ccccc23)C(c2ccc(Cl)c(Cl)c2)C2=C(CC(C)(C)CC2=O)N1 (stereo not drawn) | 1.42 | 
7 | CC1=C(C(=O)NCCc2c[nH]c3ccccc23)C(c2ccc(Cl)c(Cl)c2)C2=C(CC(C)(C)CC2=O)N1 (stereo not drawn) | 2.96 | Activity [2]: Dose-Dependent Effect; Activity [3]: inactive; Activity [4]: inactive; Activity [5]: Active; Activity [6]: Active; Activity [7]: Active; Activity [8]: Active; remaining at 2 h [9]: 90.8%; remaining at 2 h [10]: 91.1%; remaining at 2 h [11]: 96.2%; remaining at 2 h [12]: 90.2%; Cmax [13]: 51.7 ng/mL; Tmax [14]: 0.42 h; AUC at 48 h [15]: 367 ng·h/mL; half-life [16]: 14.3 h; CL/F [17]: 254 L/h/kg; Vd(app) [18]: 5281.28 L/kg; MRT [19]: 20.8 h
8 | CC1=C(C(=O)NCCc2c[nH]c3ccccc23)C(c2ccc(O)c(O)c2)C2=C(CC(C)(C)CC2=O)N1 (stereo not drawn) | 0.99 | 
9 | COc1ccc2[nH]cc(CCNC(=O)C3=C(C)NC4=C(C(=O)CC(C)(C)C4)C3c3ccc(Cl)c(Cl)c3)c2c1 (stereo not drawn) | 1.37 | 
10 | CC1=C(C(=O)NCCc2c[nH]c3ccccc23)C(c2ccc([N+](=O)[O-])cc2)C2=C(CC(C)(C)CC2=O)N1 (stereo not drawn) | 1.72 | 
11 | CCNC(=O)C1=C(C)NC2=C(C(=O)CC(C)(C)C2)C1c1ccc(Cl)c(Cl)c1 (stereo not drawn) | 1.16 | 
12 | CC1=C(C(=O)NCCc2c[nH]c3ccccc23)C(c2cccc([N+](=O)[O-])c2)C2=C(CC(C)(C)CC2=O)N1 (stereo not drawn) | 1.86 | Activity [2]: Dose-Dependent Effect
13 | CSc1ccc(C2C(C(=O)NCCc3c[nH]c4ccccc34)=C(C)NC3=C2C(=O)CC(C)(C)C3)cc1 (stereo not drawn) | 1.33 | 
14 | COc1ccc(C2C(C(=O)NCCc3c[nH]c4ccccc34)=C(C)NC3=C2C(=O)CCC3)cc1OC (stereo not drawn) | 1.48 | 
15 | CC1=C(C(=O)NCCc2c[nH]c3ccccc23)C(c2ccco2)C2=C(CCCC2=O)N1 (stereo not drawn) | 1.62 | 
16 | CC1=C(C(=O)NCCc2c[nH]c3ccccc23)C(c2ccc(F)cc2)C2=C(CC(C)(C)CC2=O)N1 (stereo not drawn) | 1 | 
17 | NCCc1c[nH]c2ccccc12 | 1.08 | 
18 | COc1ccc(C2C(C(=O)NCCc3c[nH]c4ccccc34)=C(C)NC3=C2C(=O)CC(C)(C)C3)cc1 (stereo not drawn) | 1.39 | 

Row | SMILES | fold change (FC) [1] | also measured
19 | CC1=C(C(=O)NCCc2c[nH]c3ccccc23)C(c2ccc(F)cc2)C2=C(CCCC2=O)N1 (stereo not drawn) | 1.54 | 
20 | CC1=C(C(=O)NCCc2c[nH]c3ccccc23)C(c2scnc2C)C2=C(CC(C)(C)CC2=O)N1 (stereo not drawn) | 1 | 
21 | CC(=O)CC(=O)NCCc1c[nH]c2ccccc12 | 1.18 | 
22 | CC1=C(C(=O)NCCc2c[nH]c3ccccc23)C(c2ccsc2)C2=C(CC(C)(C)CC2=O)N1 (stereo not drawn) | 1.87 | Activity [2]: Dose-Dependent Effect
23 | CC1=C(C(=O)NCCc2c[nH]c3ccccc23)C(c2ccc(OC(F)(F)F)cc2)C2=C(CC(C)(C)CC2=O)N1 (stereo not drawn) | 2.11 | Activity [2]: Dose-Dependent Effect
24 | CC1=C(C(=O)NCCc2c[nH]c3ccccc23)C(c2c(Cl)cccc2Cl)C2=C(CC(C)(C)CC2=O)N1 (stereo not drawn) | 0.82 | 
25 | CC1=C(C(=O)NCCc2c[nH]c3ccccc23)C(c2ccco2)C2=C(CC(C)(C)CC2=O)N1 (stereo not drawn) | 2.01 | Activity [2]: Dose-Dependent Effect
26 | COc1cc(C2C(C(=O)NCCc3c[nH]c4ccccc34)=C(C)NC3=C2C(=O)CCC3)cc(OC)c1OC (stereo not drawn) | 1.79 | Activity [2]: Dose-Dependent Effect
27 | CN(C)C(=N)NC(=N)N |  | fold change (FC) [20]: 1.86
28 | CC1=C(C(=O)NCCc2c[nH]c3ccccc23)C(c2cccs2)C2=C(CC(C)(C)CC2=O)N1 (stereo not drawn) | 1.09 | 
29 | CC1=C(C(=O)NCCc2c[nH]c3ccccc23)C(c2cccc(Cl)c2Cl)C2=C(CC(C)(C)CC2=O)N1 (stereo not drawn) | 1.52 | 
30 | CC1=C(C(=O)NCCc2c[nH]c3ccccc23)C(c2ccc(Cl)cc2)C2=C(CC(C)(C)CC2=O)N1 (stereo not drawn) | 1.49 | 
31 | COc1cc(C2C(C(=O)NCCc3c[nH]c4ccccc34)=C(C)NC3=C2C(=O)CC(C)(C)C3)cc(OC)c1OC (stereo not drawn) | 1.21 | 
32 | O=C(NC(Cc1c[nH]c2ccccc12)C(=O)O)c1cccc(Cl)c1 (stereo not drawn) |  | inhibition [21]: 49%
33 | COc1ccc(C2C(C(=O)NCCc3c[nH]c4ccccc34)=C(C)NC3=C2C(=O)CC(C)(C)C3)cc1OC (stereo not drawn) | 1.3 | 
34 | CC1=C(C(=O)NCCc2c[nH]c3ccccc23)C(c2ccc(C(F)(F)F)cc2)C2=C(CC(C)(C)CC2=O)N1 (stereo not drawn) | 1.58 | 
35 | Cc1nc2c(c(-c3ccc(Cl)c(Cl)c3)c1C(=O)NCCc1c[nH]c3ccccc13)C(=O)CC(C)(C)C2 | 1.42 | 
